Eight compounds from DBAASP can be followed below.

A word on the MIC: it is the lowest concentration found to suppress growth. Low readings indicate greater potency, high ones weaker potency.

The structures appear in SMILES notation. ≈ marks a conversion by molar mass, not a printed value. A value given as a limit tells only on which side of the number the result lay.

Test systems include Staphylococcus aureus 1; Bacillus subtilis 168; Staphylococcus aureus; Escherichia coli B; Pseudomonas aeruginosa; Bacillus subtilis; Escherichia coli MG1655; Vibrio cholerae; Escherichia coli C600.
Holding throughout (test): ≥ marks a high value that may be exact or a test limit, other limits are often not marked, values filed in µg/mL are converted to µM
For assay [1], the system named is Staphylococcus epidermidis.
The subject of assay [2] is Staphylococcus aureus ATCC 43300.
In assay [3] the test system is Candida albicans F7-39/IDE99.
Assay [4] deals with Pseudomonas aeruginosa ATCC 27853.
For assay [5], the system named is Micrococcus luteus CCM 144.
Assay [6] deals with Staphylococcus epidermidis ATCC 35984.
Assay [7] has as its system Staphylococcus aureus ATCC 25923.
The subject of assay [8] is Staphylococcus aureus ATCC 33591.
The test system of assay [9] is Pectobacterium carotovorum.
Assay [10] relates to Bacillus subtilis MTCC 14416.
Assay [11] has as its system Enterococcus faecalis ATCC 29212.
Assay [12] deals with Staphylococcus aureus MTCC 9542.
In assay [13] the test system is Pseudomonas aeruginosa PAO1.
The subject of assay [14] is Staphylococcus aureus 209P.
For assay [15], the system named is Candida albicans ATCC 64550.

In the case of `CC[C@H](C)[C@H](NC(=O)CN)C(=O)N[C@@H](CC(C)C)C(=O)N[C@@H](CO)C(=O)N[C@@H](CO)C(=O)N[C@@H](Cc1c[nH]c2ccccc12)C(=O)N[C@@H](CC(C)C)C(=O)N[C@@H](CCCCN)C(=O)N[C@@H](CCCCN)C(=O)N[C@@H](CC(C)C)C(=O)N[C@@H](CCCCN)C(=O)N[C@@H](CCCCN)C(=O)N[C@H](C(=O)N[C@H](C(=O)N[C@@H](C)C(=O)N[C@@H](CCCCN)C(N)=O)[C@@H](C)CC)[C@@H](C)CC` [GILSSWLKKLKKIIAK], the MIC in assay [1] stood at 2 µM (≈ 3.65 µg/mL); in assay [2], 16 µM (≈ 29.2 µg/mL); against Staphylococcus aureus 1, 6.6 µM (≈ 12 µg/mL); in assay [3], 17 µM (≈ 31 µg/mL); in [4] it was 4 µM (≈ 7.3 µg/mL); in the assay with Bacillus subtilis 168, 7 µM (≈ 12.8 µg/mL). Moreover, the MIC was 16 µM (≈ 29.2 µg/mL) with Staphylococcus aureus, 11 µM (≈ 20.1 µg/mL) in the assay with Escherichia coli B, 3 µM (≈ 5.48 µg/mL) in [5] and 5.9 µM (≈ 10.8 µg/mL) in the assay with Pseudomonas aeruginosa.
Regarding `CC[C@H](C)[C@H](NC(=O)CN)C(=O)N[C@@H](CCSC)C(=O)N[C@@H](CO)C(=O)N[C@@H](CO)C(=O)N[C@@H](CC(C)C)C(=O)N[C@@H](CCSC)C(=O)N[C@@H](CCCCN)C(=O)N[C@@H](CCCCN)C(=O)N[C@@H](CC(C)C)C(=O)N[C@@H](C)C(=O)N[C@@H](C)C(=O)N[C@@H](Cc1cnc[nH]1)C(=O)N[C@H](C(=O)N[C@@H](CCCCN)C(=O)N[C@@H](CCCCN)C(N)=O)[C@@H](C)CC` [GIMSSLMKKLAAHIKK], the MIC in assay [1] was 11 µM (≈ 19.3 µg/mL); in assay [2], 85 µM (≈ 149 µg/mL); against Staphylococcus aureus 1, not below 77 µM; in assay [3], 5 µM (≈ 8.78 µg/mL); in [4] it was 23 µM (≈ 40.4 µg/mL); in the assay with Bacillus subtilis 168 it was 7 µM (≈ 12.3 µg/mL). The MIC in the assay on Staphylococcus aureus came to 90 µM (≈ 158 µg/mL); against Escherichia coli B it was 20 µM (≈ 35.1 µg/mL); in [5] it was 3 µM (≈ 5.27 µg/mL); against Pseudomonas aeruginosa, 46 µM (≈ 80.7 µg/mL).
In the case of `CC(C)C[C@H](NC(=O)[C@H](Cc1ccccc1)NC(=O)[C@H](CCCCN)NC(=O)CN)C(=O)N[C@@H](CCCCN)C(=O)N[C@@H](CCCCN)C(=O)N[C@@H](C)C(=O)N[C@@H](CCCCN)C(=O)N[C@@H](CCCCN)C(=O)N[C@@H](Cc1ccccc1)C(=O)NCC(=O)N[C@@H](CCCCN)C(N)=O` [GKFLKKAKKFGK], the MIC was more than 371 µM in assay [4], not below 262 µM in [6], more than 371 µM in [7] and not below 371 µM in [8].
For the compound `CC[C@H](C)[C@H](NC(=O)[C@H](CO)NC(=O)[C@H](CCCN=C(N)N)NC(=O)CNC(=O)[C@H](CCC(=O)O)NC(=O)[C@H](CC(C)C)NC(=O)[C@H](CCC(=O)O)NC(=O)[C@H](CC(C)C)NC(=O)[C@H](CO)NC(=O)[C@H](CC(=O)O)NC(=O)[C@H](Cc1ccc(O)cc1)NC(=O)[C@H](CCCN=C(N)N)NC(=O)[C@H](Cc1ccc(O)cc1)NC(=O)CNC(=O)[C@H](Cc1ccccc1)NC(=O)[C@@H](N)CCCCN)C(=O)N[C@@H](CO)C(=O)N[C@@H](CCCN=C(N)N)C(=O)N[C@H](C(=O)N[C@@H](CC(=O)O)C(=O)N[C@@H](CCC(=O)O)C(=O)N[C@@H](CC(C)C)C(=O)N[C@H](C(=O)N[C@@H](CCC(N)=O)C(=O)N[C@@H](CCC(N)=O)C(=O)N[C@@H](CCCN=C(N)N)C(=O)O)[C@@H](C)CC)[C@@H](C)CC` [KFGYRYDSLELEGRSISRIDELIQQR], the MIC against Bacillus subtilis came to 2.45 µM (≈ 7.77 µg/mL); in assay [9], 0.632 µM (≈ 2.01 µg/mL).
Regarding `CC(C)C[C@H](NC(=O)[C@H](Cc1ccccc1)NC(=O)[C@@H](N)CCCCN)C(=O)N[C@@H](CCCCN)C(=O)N[C@@H](CCCCN)C(=O)N[C@@H](C)C(=O)N[C@@H](CCCCN)C(=O)N[C@@H](CCCCN)C(=O)N[C@@H](Cc1ccccc1)C(=O)NCC(=O)N[C@@H](CCCCN)C(=O)N[C@@H](C)C(N)=O` [KFLKKAKKFGKA], the MIC is 367 µM (≈ 512 µg/mL) in assay [4], not below 367 µM in assay [6], more than 367 µM in [7] and not below 367 µM in assay [8].
In the case of `CC[C@H](C)[C@H](NC(=O)[C@H](CCCCN)NC(=O)[C@H](CS)NC(=O)[C@H](CC(C)C)NC(=O)[C@@H](NC(=O)[C@H](CCC(N)=O)NC(=O)[C@@H]1CCCN1C(=O)[C@H](CC(C)C)NC(=O)[C@H](Cc1ccccc1)NC(=O)[C@H](CC(N)=O)NC(=O)[C@H](C)NC(=O)[C@H](C)NC(=O)[C@H](CC(C)C)NC(=O)CNC(=O)[C@H](C)NC(=O)[C@@H](NC(=O)[C@@H](N)CC(C)C)[C@@H](C)CC)[C@@H](C)CC)C(=O)N[C@@H](C)C(=O)N[C@@H](CCCN=C(N)N)C(=O)N[C@@H](CCCCN)C(=O)N[C@@H](CS)C(N)=O` [LIAGLAANFLPQILCKIARKC], the MIC is 22.2 µM (≈ 50 µg/mL) in [10]; 44.3 µM (≈ 100 µg/mL) in assay [11]; more than 44.3 µM in [2]; 11.1 µM (≈ 25 µg/mL) with Escherichia coli MG1655; more than 44.3 µM in assay [4]; not below 44.3 µM in [12]. In the assay on Vibrio cholerae, this compound returned a minimal inhibitory concentration (MIC) of 11.1 µM (≈ 25 µg/mL).
As for `CC(C)[C@@H]1NC(=O)CNC(=O)[C@H](CCCN=C(N)N)NC(=O)[C@H](C(C)C)NC(=O)[C@H](CCCN=C(N)N)NC(=O)[C@H](C)NC(=O)[C@H](CCCN=C(N)N)NC(=O)[C@H](C(C)C)NC(=O)[C@@H](NC(=O)[C@H](Cc2c[nH]c3ccccc23)NC(=O)[C@@H](N)CCCN=C(N)N)CSSC[C@@H](C(=O)N[C@@H](Cc2c[nH]c3ccccc23)C(=O)O)NC(=O)[C@H](CCCN=C(N)N)NC(=O)[C@H](CCCN=C(N)N)NC(=O)[C@H](Cc2ccc(O)cc2)NC(=O)[C@H](CCCN=C(N)N)NC1=O` [RWCVRARVRGVRYRRCW], the MIC came to 1.56 µM (≈ 3.55 µg/mL) against Escherichia coli C600, 12.5 µM (≈ 28.5 µg/mL) in assay [13] and 1.56 µM (≈ 3.55 µg/mL) in assay [14].
As for `CC(C)[C@H](NC(=O)[C@H](CCCN=C(N)N)NC(=O)[C@@H](NC(=O)[C@H](CCCN=C(N)N)NC(=O)[C@H](Cc1c[nH]c2ccccc12)NC(=O)[C@H](CCCN=C(N)N)NC(=O)[C@@H](N)Cc1c[nH]c2ccccc12)C(C)C)C(=O)N[C@@H](Cc1c[nH]c2ccccc12)C(=O)N[C@@H](CCCN=C(N)N)C(N)=O` [WRWRVRVWR], the values for the minimal inhibitory concentration (MIC) in assay [13] and in assay [15] were 1.79 µM (≈ 2.5 µg/mL) and not below 100 µM, respectively.
